Source: publication PMC6522510 (Nature Communications, 2019)
Where two headings read alike, the source gives them in different places.

What was measured:
Assay in all cases: Secondary dose-response HTS, Cell Titer Glo; call rule not given here
Format in all cases: cell-based, human
CMS = conditions: for EC50: read-out: average effective concentration, CMS
MV4-11 = conditions: secondary high-throughput screen, MV4-11; for EC50: Homo sapiens, read-out: average effective concentration, MV4-11
CMK = conditions: CMK; for EC50: read-out: average effective concentration, CMK
U937 = conditions: secondary high-throughput screen, U937; for EC50: read-out: average effective concentration, U937
CHRF288-11 = conditions: secondary high-throughput screen, CHRF288-11; for EC50: read-out: average effective concentration, CHRF288-11
ML2 = conditions: secondary high-throughput screen, ML-2; for EC50: read-out: average effective concentration, ML-2
M07e = conditions: secondary high-throughput screen; for EC50: read-out: average effective concentration, M07e
MOLM-13 = conditions: secondary high-throughput screen, MOLM-13; for EC50: read-out: average effective concentration, MOLM-13
[1] = secondary high-throughput screen, CMS
[2] = secondary high-throughput screen
[3] = Homo sapiens, HTS, secondary high-throughput screen, CMS
[4] = Homo sapiens, secondary high-throughput screen

| Compound | average effective concentration, MV4-11 (MV4-11) | average effective concentration, MOLM-13 (MOLM-13) | average effective concentration, CMS (CMS; [1]) | average effective concentration, CMK (CMK; [2]) | average effective concentration, U937 (U937) | average effective concentration, CHRF288-11 (CHRF288-11) | average effective concentration, ML-2 (ML2) | average effective concentration, M07e (M07e; M07e) | also measured |
| --- | --- | --- | --- | --- | --- | --- | --- | --- | --- |
| O=C1c2ccccc2-c2nc3nnnn3nc21.O=C1c2ccccc2-c2nn3nnnc3nc21 [KP-372-1] | Inactive | Inactive |  |  |  |  |  |  | EC50 (CMS; [1]): 0.031 µM; EC50 (CMK; [2]): 0.024 µM; EC50 (U937): 0.01 µM; EC50 (CHRF288-11): 0.038 µM; EC50 (ML2): 0.006 µM; EC50 (M07e; M07e): 0.053 µM |
| O=c1cc(N2CCOCC2)oc2c1ccc1ccccc12 [NU 7026] | Inactive | Inactive | Inactive | Inactive | Inactive | Inactive | Inactive | Inactive |  |
| C[C@@H]1CN(CC(=O)Nc2ccc3c(c2)Cc2cccc(-c4cc(=O)cc(N5CCOCC5)o4)c2S3)C[C@H](C)O1 [KU60019] | Inactive | Inactive |  | Inactive | Inactive | Inactive | Inactive | Inactive | EC50 (CMS; [3]): > 10 µM |
| CC[C@]1(O)C[C@H]2CN(CCc3c([nH]c4ccccc34)[C@@](C(=O)OC)(c3cc4c(cc3OC)N(C=O)[C@H]3[C@@](O)(C(=O)OC)[C@H](OC(C)=O)[C@]5(CC)C=CCN6CC[C@]43[C@@H]65)C2)C1 [VINCRISTINE] |  |  |  |  |  |  |  |  | EC50 (CMS; [3]): 0.23 µM; EC50 (MV4-11): 0.02 µM; EC50 (CMK; [4]): > 10 µM; EC50 (U937; Homo sapiens, U-937): 0.035 µM; EC50 (CHRF288-11; Homo sapiens, HTS): 0.39 µM; EC50 (ML2; Homo sapiens): 0.008 µM; EC50 (M07e; Homo sapiens, M-07e, M07e): 0.001 µM; EC50 (MOLM-13; Homo sapiens): 0.043 µM |
| EB-47 | Inactive | Inactive | Inactive | Inactive | Inactive | Inactive | Inactive | Inactive |  |
| O=C1Nc2ccc(I)cc2/C1=C/c1cc(Br)c(O)c(Br)c1 [GW 5074] | Inactive | Inactive | Inactive | Inactive | Inactive | Inactive | Inactive | Inactive |  |
| O=C([O-])Cc1ccccc1.[Na+] [SODIUM PHENYLACETATE] | Inactive |  | Inactive | Inactive | Inactive | Inactive | Inactive |  | average effective concentration, M07e (M07e; […]): Inactive; EC50 (MOLM-13): 2.1 µM |
| CN(C)C/C=C/C(=O)Nc1cc2c(Nc3ccc(F)c(Cl)c3)ncnc2cc1O[C@H]1CCOC1 [AFATINIB] |  |  |  |  |  |  |  |  | EC50 (CMS; [3]): 8.6 µM; EC50 (MV4-11): 5.4 µM; EC50 (CMK; [4]): 3.6 µM; EC50 (U937; Homo sapiens, U-937): 6.2 µM; EC50 (CHRF288-11; Homo sapiens, HTS): 6.9 µM; EC50 (ML2; Homo sapiens): 7 µM; EC50 (M07e; Homo sapiens, M-07e, M07e): > 10 µM; EC50 (MOLM-13; Homo sapiens): 5.6 µM |
| COC(=O)[C@]1(C)CC[C@]2(C)CC[C@]3(C)C4=CC=C5C(=CC(=O)C(O)=C5C)[C@]4(C)CC[C@@]3(C)[C@@H]2C1 [PRISTIMERIN] | Inactive | Inactive |  |  |  |  |  |  | EC50 (CMS; [3]): 1.5 µM; EC50 (CMK; [4]): 0.24 µM; EC50 (U937; Homo sapiens, U-937): 0.8 µM; EC50 (CHRF288-11; Homo sapiens, HTS): 0.24 µM; EC50 (ML2; Homo sapiens): 0.12 µM; EC50 (M07e; Homo sapiens, M-07e, […]): 4.6 µM |
| CSCC[C@H](NC(=O)[C@H](Cc1ccccc1)NC[C@@H](NC[C@@H](N)CS)C(C)C)C(=O)O [FTASE INHIBITOR I] | Inactive | Inactive | Inactive | Inactive | Inactive | Inactive | Inactive |  | average effective concentration, M07e (M07e; […]): Inactive |
| CN(N=O)C(=O)N[C@H]1C(O)O[C@H](CO)[C@@H](O)[C@@H]1O (mixture of isomers) [STREPTOZOSIN] | Inactive | Inactive | Inactive | Inactive | Inactive | Inactive | Inactive | Inactive |  |
| Cc1ccc(S(=O)(=O)n2c(N)nc3ccccc32)cc1 [NODINITIB-1] | Inactive | Inactive | Inactive | Inactive | Inactive | Inactive | Inactive | Inactive |  |
| Cn1cc(-c2[nH]c3cc(NC(=O)[C@H](N)C4CCCCC4)cc4c3c2C=NNC4=O)cn1 [PF-477736] |  |  |  |  |  |  |  |  | EC50 (CMS; Homo sapiens, HTS): 6.2 µM; EC50 (MV4-11): 0.05 µM; EC50 (CMK; Homo sapiens): 0.22 µM; EC50 (U937; Homo sapiens, U-937): 0.1 µM; EC50 (CHRF288-11; Homo sapiens, HTS): 1.2 µM; EC50 (ML2; Homo sapiens): 0.028 µM; EC50 (M07e; Homo sapiens, M-07e, M07e): 0.24 µM; EC50 (MOLM-13; Homo sapiens): 0.018 µM |
| CC12CC3CC(C)(C1)CC(N)(C3)C2 [MEMANTINE] | Inactive | Inactive | Inactive | Inactive | Inactive | Inactive | Inactive |  | EC50 (M07e; Homo sapiens, M-07e, M07e): > 10 µM |
| ANACARDIC ACID | Inactive | Inactive | Inactive | Inactive | Inactive | Inactive | Inactive | Inactive |  |
| NC(=O)C1CCCc2c1[nH]c1ccc(Cl)cc21 (centres unmarked) | Inactive | Inactive | Inactive | Inactive | Inactive | Inactive | Inactive | Inactive |  |
